Active and inactive are the calls of the source. The rule behind the calls is not given here.
Test system: CCRIS mutagenicity, Ames/micronucleus/aberration tests
Assay: CCRIS mutagenicity studies
[1] = Test System: AMES SALMONELLA TYPHIMURIUM, Strain/Indicator: TA98, Metabolic Activation: NONE, Method: PREINCUBATION
[2] = Test System: AMES SALMONELLA TYPHIMURIUM, Strain/Indicator: TA100, Metabolic Activation: NONE, Method: PREINCUBATION
[3] = Test System: AMES SALMONELLA TYPHIMURIUM, Strain/Indicator: TA98, Metabolic Activation: NONE, Method: STANDARD PLATE
[4] = Test System: AMES SALMONELLA TYPHIMURIUM, Strain/Indicator: TA100, Metabolic Activation: NONE, Method: STANDARD PLATE
[5] = Test System: AMES SALMONELLA TYPHIMURIUM, Strain/Indicator: TA1535, Metabolic Activation: NONE, Method: STANDARD PLATE
[6] = Test System: AMES SALMONELLA TYPHIMURIUM, Strain/Indicator: TA1537, Metabolic Activation: NONE, Method: STANDARD PLATE
[7] = Test System: AMES SALMONELLA TYPHIMURIUM, Strain/Indicator: TA1538, Metabolic Activation: NONE, Method: STANDARD PLATE

## C=CCSSCCC
Test System: AMES SALMONELLA TYPHIMURIUM, Strain/Indicator: TA97, Metabolic Activation: HAMSTER, LIVER, S-9, AROCLOR 1254 (10 OR 30%), Method: PREINCUBATION
  mutagenic call: inactive; negative
Test System: AMES SALMONELLA TYPHIMURIUM, Strain/Indicator: TA97, Metabolic Activation: NONE, Method: PREINCUBATION
  mutagenic call: inactive; negative
Test System: AMES SALMONELLA TYPHIMURIUM, Strain/Indicator: TA97, Metabolic Activation: RAT, LIVER, S-9, AROCLOR 1254 (10 OR 30%), Method: PREINCUBATION
  mutagenic call: inactive; negative
Test System: AMES SALMONELLA TYPHIMURIUM, Strain/Indicator: TA98, Metabolic Activation: HAMSTER, LIVER, S-9, AROCLOR 1254 (10 OR 30%), Method: PREINCUBATION
  mutagenic call: inactive; negative
[1]
  mutagenic call: inactive; negative
Test System: AMES SALMONELLA TYPHIMURIUM, Strain/Indicator: TA98, Metabolic Activation: RAT, LIVER, S-9, AROCLOR 1254 (10 OR 30%), Method: PREINCUBATION
  mutagenic call: inactive; negative
Test System: AMES SALMONELLA TYPHIMURIUM, Strain/Indicator: TA100, Metabolic Activation: HAMSTER, LIVER, S-9, AROCLOR 1254 (10 OR 30%), Method: PREINCUBATION
  mutagenic call: inactive; negative
[2]
  mutagenic call: inactive; negative
Test System: AMES SALMONELLA TYPHIMURIUM, Strain/Indicator: TA100, Metabolic Activation: RAT, LIVER, S-9, AROCLOR 1254 (10 OR 30%), Method: PREINCUBATION
  mutagenic call: inactive; negative
Test System: AMES SALMONELLA TYPHIMURIUM, Strain/Indicator: TA1535, Metabolic Activation: HAMSTER, LIVER, S-9, AROCLOR 1254 (10 OR 30%), Method: PREINCUBATION
  mutagenic call: inactive; negative
Test System: AMES SALMONELLA TYPHIMURIUM, Strain/Indicator: TA1535, Metabolic Activation: NONE, Method: PREINCUBATION
  mutagenic call: inactive; negative
Test System: AMES SALMONELLA TYPHIMURIUM, Strain/Indicator: TA1535, Metabolic Activation: RAT, LIVER, S-9, AROCLOR 1254 (10 OR 30%), Method: PREINCUBATION
  mutagenic call: inactive; negative

## C[n+]1ccn(COCCC(C)(C)[N+](=O)[O-])c1/C=N/O
Test System: AMES SALMONELLA TYPHIMURIUM, Strain/Indicator: TA97, Metabolic Activation: NONE, Method: STANDARD PLATE
  mutagenic call: inactive; negative
Test System: AMES SALMONELLA TYPHIMURIUM, Strain/Indicator: TA97, Metabolic Activation: S-9, Method: STANDARD PLATE
  mutagenic call: inactive; negative
[3]
  mutagenic call: inactive; negative
Test System: AMES SALMONELLA TYPHIMURIUM, Strain/Indicator: TA98, Metabolic Activation: S-9, Method: STANDARD PLATE
  mutagenic call: inactive; negative
[4]
  mutagenic call: inactive; negative
Test System: AMES SALMONELLA TYPHIMURIUM, Strain/Indicator: TA100, Metabolic Activation: S-9, Method: STANDARD PLATE
  mutagenic call: inactive; negative
Test System: AMES SALMONELLA TYPHIMURIUM, Strain/Indicator: TA104, Metabolic Activation: NONE, Method: STANDARD PLATE
  mutagenic call: inactive; negative
Test System: AMES SALMONELLA TYPHIMURIUM, Strain/Indicator: TA104, Metabolic Activation: S-9, Method: STANDARD PLATE
  mutagenic call: inactive; negative
[5]
  mutagenic call: inactive; negative
Test System: AMES SALMONELLA TYPHIMURIUM, Strain/Indicator: TA1535, Metabolic Activation: S-9, Method: STANDARD PLATE
  mutagenic call: inactive; negative
[6]
  mutagenic call: inactive; negative
Test System: AMES SALMONELLA TYPHIMURIUM, Strain/Indicator: TA1537, Metabolic Activation: S-9, Method: STANDARD PLATE
  mutagenic call: inactive; negative
[7]
  mutagenic call: inactive; negative
Test System: AMES SALMONELLA TYPHIMURIUM, Strain/Indicator: TA1538, Metabolic Activation: S-9, Method: STANDARD PLATE
  mutagenic call: inactive; negative

## CC1(C)CCC[C@]2(C)[C@H]3CC=C(C=O)[C@@H](C=O)[C@]3(C)CC[C@@H]12
[3]
  mutagenic call: inactive; negative
[4]
  mutagenic call: inactive; negative
Test System: AMES SALMONELLA TYPHIMURIUM, Strain/Indicator: TA2637, Metabolic Activation: NONE, Method: STANDARD PLATE
  mutagenic call: inactive; negative

## COc1nsc2cc([N+](=O)[O-])ccc12
[3]
  mutagenic call: active; positive

## CSc1ccc([N+](=O)[O-])cc1[N+](=O)[O-]
Test System: AMES SALMONELLA TYPHIMURIUM, Strain/Indicator: TA100(NR), Metabolic Activation: NONE, Method: PREINCUBATION
  mutagenic call: active; positive
Test System: AMES SALMONELLA TYPHIMURIUM, Strain/Indicator: TA100/GSH-, Metabolic Activation: NONE, Method: PREINCUBATION
  mutagenic call: active; positive
[2]
  mutagenic call: active; positive

## N[C@@H](Cc1cc(I)c(Oc2cc(I)c(O)c(I)c2)c(I)c1)C(=O)O
End Point: In vitro micronucleus, Test System: Human peripheral blood lymphocytes, Metabolic Activation: None
  mutagenic call: inactive; negative

## O=[N+]([O-])c1cc(-c2ccc(O)c([N+](=O)[O-])c2)ccc1O
[1]
  mutagenic call: inactive; negative

## CCCCN[N+](=O)[O-]
Test System: E. COLI, Strain/Indicator: WP2 (HCR-), Metabolic Activation: NONE
  mutagenic call: active; positive

## COC(=O)/C(C#N)=C/c1ccc(Br)o1
[1]
  mutagenic call: inactive; negative

## O=NN(CCCl)C(=O)NCCCl
End Point: In vitro micronucleus, Test System: Human lymphoblastoid TK6 cells, Metabolic Activation: None
  mutagenic call: active; positive (not dose related)
[5]
  mutagenic call: active; positive
Test System: CHINESE HAMSTER OVARY, Strain/Indicator: D422 (APRT), Metabolic Activation: NONE, Method: REPLATING
  mutagenic call: active; positive
Test System: CHINESE HAMSTER V-79, Strain/Indicator: V-79/6-THIOGUANINE, Metabolic Activation: NONE, Method: STANDARD PLATE
  mutagenic call: active; positive

## C=CC(=O)OCCCCC
[3]
  mutagenic call: inactive; negative
Test System: AMES SALMONELLA TYPHIMURIUM, Strain/Indicator: TA98, Metabolic Activation: RAT, LIVER, S-9, AROCLOR 1254, Method: STANDARD PLATE
  mutagenic call: inactive; negative
Test System: AMES SALMONELLA TYPHIMURIUM, Strain/Indicator: TA98, Metabolic Activation: RAT, LIVER, S-9, SODIUM PHENOBARBITAL, Method: STANDARD PLATE
  mutagenic call: inactive; negative
[4]
  mutagenic call: inactive; negative
Test System: AMES SALMONELLA TYPHIMURIUM, Strain/Indicator: TA100, Metabolic Activation: RAT, LIVER, S-9, AROCLOR 1254, Method: STANDARD PLATE
  mutagenic call: inactive; negative
Test System: AMES SALMONELLA TYPHIMURIUM, Strain/Indicator: TA100, Metabolic Activation: RAT, LIVER, S-9, SODIUM PHENOBARBITAL, Method: STANDARD PLATE
  mutagenic call: inactive; negative
[5]
  mutagenic call: inactive; negative
Test System: AMES SALMONELLA TYPHIMURIUM, Strain/Indicator: TA1535, Metabolic Activation: RAT, LIVER, S-9, AROCLOR 1254, Method: STANDARD PLATE
  mutagenic call: inactive; negative
Test System: AMES SALMONELLA TYPHIMURIUM, Strain/Indicator: TA1535, Metabolic Activation: RAT, LIVER, S-9, SODIUM PHENOBARBITAL, Method: STANDARD PLATE
  mutagenic call: inactive; negative
[6]
  mutagenic call: inactive; negative
Test System: AMES SALMONELLA TYPHIMURIUM, Strain/Indicator: TA1537, Metabolic Activation: RAT, LIVER, S-9, AROCLOR 1254, Method: STANDARD PLATE
  mutagenic call: inactive; negative
Test System: AMES SALMONELLA TYPHIMURIUM, Strain/Indicator: TA1537, Metabolic Activation: RAT, LIVER, S-9, SODIUM PHENOBARBITAL, Method: STANDARD PLATE
  mutagenic call: inactive; negative
[7]
  mutagenic call: inactive; negative
Test System: AMES SALMONELLA TYPHIMURIUM, Strain/Indicator: TA1538, Metabolic Activation: RAT, LIVER, S-9, AROCLOR 1254, Method: STANDARD PLATE
  mutagenic call: inactive; negative
Test System: AMES SALMONELLA TYPHIMURIUM, Strain/Indicator: TA1538, Metabolic Activation: RAT, LIVER, S-9, SODIUM PHENOBARBITAL, Method: STANDARD PLATE
  mutagenic call: inactive; negative
